# According to the supplement of paper PMC10307832:
# Columns and labels:
# Experiment in all cases: relative viability (nuclei count vs DMSO), 5 days (fraction); higher = more cells survive
# [1] = compound: C1CSC2=C(C(=O)N1)SC3=C2C=C(C=C3)O [kb NB 142-70] + O=C(CCCCCCC(=O)Nc1ccccc1)NO [Vorinostat] (partner 1 µM)
# Outline: (§1)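 Lung cancer cell lines in 1536-well plates were dosed by pin tool the day after seeding, either with one drug alone or with a fixed anchor-drug dose plus five library-drug doses (not always all listed) in √10 steps. After 5 days, cells were fixed and their nuclei stained in one step (final 0.05% Triton X-100, 1% formaldehyde, 1 ug/ml Hoechst), then counted on 4× images. Relative viability is the nuclei count in treated wells divided by that in vehicle wells. Values are medians of duplicate plates.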
# [2] = compound: NCC(=O)Nc1ccc(-n2nc(C(F)(F)F)cc2-c2ccc3c(ccc4ccccc43)c2)cc1 + Nc1ncn([C@H]2C[C@H](O)[C@@H](CO)O2)c(=O)n1 [Decitabine] (partner 2 µM)
# Outline: as §1
# [3] = compound: NCC(=O)Nc1ccc(-n2nc(C(F)(F)F)cc2-c2ccc3c(ccc4ccccc43)c2)cc1 + CC1(C)CCC(c2ccc(Cl)cc2)=C(CN2CCN(c3ccc(C(=O)NS(=O)(=O)c4ccc(N[C@H](CCN5CCOCC5)CSc5ccccc5)c(S(=O)(=O)C(F)(F)F)c4)cc3)CC2)C1 [Navitoclax] (partner 0.5 µM)
# Outline: as §1
# [4] = compound: C1CSC2=C(C(=O)N1)SC3=C2C=C(C=C3)O [kb NB 142-70] + COc1cc2c(Oc3ccc(NC(=O)C4(C(=O)Nc5ccc(F)cc5)CC4)cc3F)ccnc2cc1OCCCN1CCOCC1 [Foretinib] (partner 0.25 µM)
# Outline: as §1
# [5] = compound: C1CSC2=C(C(=O)N1)SC3=C2C=C(C=C3)O [kb NB 142-70] + Nc1ncn([C@H]2C[C@H](O)[C@@H](CO)O2)c(=O)n1 [Decitabine] (partner 2 µM)
# Outline: as §1
Cell Line,relative viability ([1]; first compound 0.1 µM),relative viability ([1]; first compound 1 µM),relative viability ([1]; first compound 3.162 µM),relative viability ([2]; first compound 0.02 µM),relative viability ([2]; first compound 0.06325 µM),relative viability ([2]; first compound 0.2 µM),relative viability ([2]; first compound 0.6325 µM),relative viability ([2]; first compound 2 µM),relative viability ([3]; first compound 0.02 µM),relative viability ([3]; first compound 0.06325 µM),relative viability ([3]; first compound 0.2 µM),relative viability ([3]; first compound 0.6325 µM),relative viability ([3]; first compound 2 µM),relative viability ([4]; first compound 0.1 µM),relative viability ([4]; first compound 1 µM),relative viability ([4]; first compound 3.162 µM),relative viability ([5]; first compound 0.1 µM),relative viability ([5]; first compound 1 µM),relative viability ([5]; first compound 3.162 µM)
NCI-H3122,0.908,1.08,0.887,0.445,0.418,0.495,0.448,0.435,1.04,1.01,1.03,1.01,0.984,0.956,0.926,0.942,0.487,0.371,0.419
PC-3 [JPC-3],0.814,0.846,0.458,0.818,0.854,0.768,0.863,0.777,0.765,0.842,0.718,0.84,0.79,0.999,1.07,1.01,0.831,0.833,0.871
PC-14,0.857,0.755,0.633,0.259,0.236,0.209,0.258,0.23,1.1,0.979,1.15,0.917,1.05,0.936,0.919,1.07,0.187,0.284,0.193
RERF-LC-KJ,0.729,0.754,0.677,0.758,0.791,0.673,0.78,0.641,1.04,1.24,1.08,0.715,0.842,0.941,0.905,0.938,0.681,0.664,0.482
SK-LU-1,0.831,0.642,0.371,0.6,0.658,0.734,0.615,0.633,0.852,0.784,1.27,0.909,0.878,0.782,0.732,0.346,0.589,0.505,0.417
SK-MES-1,1.09,1.21,0.567,0.386,0.36,0.461,0.359,0.4,1.31,1.2,1.29,1.2,1.16,0.875,0.939,0.985,0.466,0.338,0.22
SW 1573,0.655,0.426,0.327,0.496,0.524,0.524,0.518,0.436,1.03,0.969,0.867,0.905,0.942,0.892,0.797,0.605,0.526,0.378,0.26
UMC-11,0.39,0.316,0.223,0.63,0.593,0.557,0.539,0.701,0.303,0.349,0.35,0.304,0.328,0.934,0.92,0.64,0.547,0.639,0.378
